{"source": "paper PMC3448953", "about": "(2012)", "target": "BioA (Mycobacterium tuberculosis, UniProt P9WQ81)", "sequence (P9WQ81 whole entry)": "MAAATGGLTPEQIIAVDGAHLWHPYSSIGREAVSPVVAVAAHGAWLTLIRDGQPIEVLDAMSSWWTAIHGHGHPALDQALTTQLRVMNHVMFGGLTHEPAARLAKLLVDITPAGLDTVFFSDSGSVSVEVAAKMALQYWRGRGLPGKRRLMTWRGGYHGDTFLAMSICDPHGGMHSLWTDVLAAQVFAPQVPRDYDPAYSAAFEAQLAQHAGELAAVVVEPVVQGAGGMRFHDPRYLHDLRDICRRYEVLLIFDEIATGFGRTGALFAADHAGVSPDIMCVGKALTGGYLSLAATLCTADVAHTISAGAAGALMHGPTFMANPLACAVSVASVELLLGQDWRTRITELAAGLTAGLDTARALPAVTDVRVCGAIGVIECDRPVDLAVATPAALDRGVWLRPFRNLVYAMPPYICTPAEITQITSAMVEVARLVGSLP", "test": "continuous coupled fluorescence enzyme assay", "format": "biochemical", "note": "Counter-ions that a name gives are not always drawn."}
{"smiles": "N[C@H]1C=C[C@@H](CCCO)C1", "note": "(racemic) [M-2, (±)-cis-3-(-4-Aminocyclopent-2-enyl)propan-1-ol hydrochloride salt]", "values": [{"measurement": "IC50", "value": "57 ± 1.9", "unit": "µM"}]}
